Assay type in all cases: in vivo
The subject of one data set is SNC. Nature of the data set: Essential activity on the CNS (Tableau I and conclusions of the neuropsychopharmacological study). Conditions: in vivo. From the text: Dans le tableau I ci-après, on a consigné un certain nombre de composés selon la formule I de façon nullement limitative, en mentionnant l'activité essentielle sur le SNC.
Les composés de formule I agissent tous sur le SNC. Les produits des exemples 1-3 et 7-8 sont des agents stimulants, en revanche les produits des exemples 4-6 sont des agents sédatifs.

Data set [1] deals with souris mâle. Nature of the data set: Pentobarbital-induced sleep duration. An excerpt:
Les composés selon l'invention se distinguent du benzhydrylsulfinylacétamide (CRL 40476) précité par une différence d'action vis-à-vis du sommeil barbiturique. […]. Cette différence d'action qui est intéressante sur le plan thérapeutique est illustrée par le tableau IV

The subject of data set [2] is souris mâle. Nature of the data set: Toxicity, DL-0. To be noted: i.p. The method, then: (§1) On a résumé ci-après les résultats des essais pharmacologiques qui ont été entrepris avec les produits selon la présente addition. Dans ces essais, les produits de formule I à étudier ont été administrés par voie intrapéritonéale, en suspension dans une solution aqueuse de gomme arabique, sous un volume de 20 ml/kg chez la souris mâle et sous un volume de 5 ml/kg chez le rat mâle.
La toxicité a été étudiée chez la souris mâle. Les résultats relatifs à la DL-0 (dose minimale non mortelle) sont donnés dans le tableau II ci-après.

For a further data set, the system named is souris mâles. The experiment in a line: Global behaviour and reactivities, mouse. Conditions: souris. The method, then:
as §1
(§2) Pour apprécier le comportement global et les réactivités, des lots de six animaux (souris mâles ou rats mâles) ont été observés avant administration de chaque produit, puis 15 min, 30 min, 1 h, 2 h, 3 h et 24 h après administration de chaque produit. Les résultats sont consignés dans le tableau III ci-après, […]

The subject of another data set is rats mâles. The experiment in a line: Global behaviour and reactivities, rat. Here is the method: as §1, §2
In data set [3] the test system is souris. Nature of the data set: Interaction with apomorphine, mouse. Conditions: 256 mg/kg i.p. Here is the method:
as §1
Des lots de 6 souris par dose reçoivent le CRL 40933 0,5 h avant l'injection sous-cutanée d'apomorphine administrée à la dose de 1 ou 16 mg/kg.

Data set [4] has as its system souris. The experiment in a line: Interaction with reserpine. Here is the method:
as §1
Quatre heures après l'injection intrapéritonéale de 2,5 mg/kg de réserpine, des lots de 6 souris reçoivent le CRL 40933.

The subject of data set [5] is souris. The experiment in a line: Interaction with oxotremorine. The method, then: as §1
Le CRL 40933 est administré à des lots de 6 souris 0,5 h avant l'injection intrapéritonéale de 0,5 mg/kg d'oxotrémorine.

Data set [6] deals with souris. The experiment in a line: Four plates test. Conditions: 64 et 256 mg/kg i.p. The method, then:
as §1
(§3) Les essais sont effectués sur des lots de 10 souris (par dose) 0,5 h après l'administration du CRL 40933.

For data set [7], the system named is souris. The experiment in a line: Traction test. To be noted: 0,5 h after administration, dose not stated. Here is the method: as §1, §3
The test system of data set [8] is souris. Nature of the data set: Electroshock. The method, then:
as §1, §3

The subject of data set [9] is souris. The experiment in a line: Spontaneous motility (actimeter). Here is the method: as §1
Une demi-heure, après avoir reçu le CRL 40933, les souris (6 par dose, 12 témoins) sont placées en actimètre où leur motilité est enregistrée pendant 30 min.

In data set [10] the test system is souris. The experiment in a line: Motility reduced by habituation to the enclosure. Here is the method: as §1
Après 18 h de séjour dans les actimètres, les souris (6 par dose, 12 témoins) reçoivent le CRL 40933. Elles sont aussitôt replacées dans leurs enceintes respectives et, 30 min plus tard, on enregistre leur motilité pendant 30 min.

In data set [11] the test system is souris. Nature of the data set: Interaction with barbital (sleep). The method, then: as §1
Une demi-heure après l'administration de CRL 40933, des lots de 10 souris reçoivent une injection intrapéritonéale de 220 mg/kg de barbital.

Data set [12] concerns souris. Nature of the data set: Behavioural despair (forced immersion). To be noted: souris. Here is the method: as §1
Une demi-heure après avoir reçu le CRL 40933, des lots de 10 souris par dose sont placés dans un espace restreint rempli d'eau sur une hauteur de 6 cm; on note la durée d'immobilité entre la 2e et la 6e minute suivant l'immersion.

For a further data set, the system named is homme. The experiment in a line: Clinical trials. An excerpt: Les études cliniques ont porté sur les troubles de la vigilance, de l'éveil et des états confusionnels, d'une part, et sur les troubles de l'affectivité, du contact et des dépressions, d'autre part.
Data set [13] has as its system souris. The experiment in a line: Motility reduced by hypoxic aggression (acute hypobaric anoxia). Conditions: doses élevées. The method, then: as §1
Une demi-heure après avoir reçu le CRL 40933, les souris (10 par dose, 20 témoins) sont soumises à une anoxie hypobare aiguë [dépression de 600 mm Hg (soit environ 8 x 10^4 pascals) en 90 s, puis détente de 45 s], puis elles sont placées en actimètre où leur motilité est enregistrée pendant 10 min.

[14] abbreviates: 16 mg/kg, 64 mg/kg et 256 mg/kg i.p.

Turning to `NC(=O)C[S+]([O-])C(c1ccccc1)c1ccc(F)cc1` (stereo not drawn) [Exemple 9], the “Activité sur le SNC” value in the data set with SNC is “stimulant”. In the data set on SNC, the “conclusion of the neuropsychopharmacological study: main type of CNS effect” value is “effet stimulant du SNC qui est essentiel”. In addition, the “conclusion: effets de type antidépresseur” value in the data set on SNC is recorded as “à forte dose seulement un effet antidépresseur du SNC”. The “Action sur la durée du sommeil induit par le pentobarbital (50 mg/kg i.p.) effet” value with souris mâle [1] (dose 16 mg/kg i.p., 0,5 h before pentobarbital) was “(a)”. Also, the DL-O entry in the data set on souris mâle [2] is on record as “supérieure à 512 mg/kg”. Further, the “Observations (comportement global et réactivités)” value is given as “excitation pendant 1 h pour 33 % des animaux” in the data set with souris mâles (16 mg/kg i.p.); “excitation apparaissant en 30 minutes, maximale après 2 h et durant 24 h - apparition tardive (2-3 h)- 4 mouvements stéréotypés de faible intensité - réactivité au toucher pendant 2-3 h” in the data set with souris mâles (64 mg/kg i.p.); “excitation apparaissant en 30 minutes et maximale 2 à 3 h après administration - présence de stétréotypies nettes mais tardives - réactivité au toucher pendant 3 h” in the data set on souris mâles (256 mg/kg i.p.); “hyporéactivité fugace (0,5 h) et diminution du tonus musculaire” with rats mâles (8 mg/kg i.p.); “diminution fugace (0,5 h) de la réactivité au toucher et du tonus musculaire” in the data set with rats mâles (32 mg/kg i.p.); “excitation pendant 2 h avec hyper-réactivité au toucher pendant 0,5 h” with rats mâles (128 mg/kg i.p.). This molecule also returned an excitation in the data set with souris mâles (16 mg/kg i.p., pendant 1 h) of 33 % des animaux. The “action hypothermisante de l'apomorphine” value in the data set with souris [3] was “s'oppose”. The “comportement de verticalisation et stéréotypies (apomorphine)” value in the data set on souris [3] is “sans modifier”. Besides, the “hypothermie réserpinique” value with souris [4] (256 mg/kg i.p., 1,5 h) is listed as “s'oppose tardivement”. For the same molecule, the “ptosis réserpinique” value in the data set on souris [4] (256 mg/kg i.p., 24 h) was “s'oppose tardivement”. Moreover, the “signes de stimulation cholinergique périphérique dus à l'oxotrémorine” value in the data set on souris [5] (dose not stated) is recorded as “ne modifie pas”. In addition, the “tremblements induits par l'oxotrémorine” value with souris [5] (dose not stated) is “n'est pratiquement pas modifiée”. The “baisse de température provoquée par l'oxotrémorine” value in the data set with souris [5] (highest dose used) is given as “s'oppose”. The passages punis result in the data set with souris [6] was “nette augmentation”. The “déficit moteur (traction)” value in the data set on souris [7] is “ne provoque pas de déficit moteur”. The “effets convulsivants de l'électrochoc” value in the data set with souris [8] (256 mg/kg i.p.) is reported as “s'oppose partiellement”. In the data set with souris [9], the “durée de l'hypermotilité” value was ≥ 4 h. Moreover, the “time of maximal hypermotility after administration” value in the data set with souris [9] is 0,5 h. Besides, the “motilité spontanée” value in the data set with souris [9] (dès la dose de 16 mg/kg i.p.) is listed as “pypermotilité”. In the data set with souris [10] (64 mg/kg et 256 mg/kg i.p.), the “activité motrice chez la souris habituée à son enceinte” value is “reprise de l'activité motrice”. Also, the “durée du sommeil barbiturique” value in the data set with souris [11] (setting [14]) is on record as “diminue nettement”. Besides, the “durée d'immobilité” value in the data set with souris [12] (setting [14]) is on record as “diminue fortement”. For the same molecule, in the data set with homme, the “action contre l'énurésie” value is recorded as “agissent efficacement”. Besides, in the data set with homme (notamment vieillard, gélules ou comprimés de 100 à 200 mg, 1 à 3 par jour), the “résultats en tant que médicaments de l'éveil” value is “excellents résultats”.

As to `CC(C)(C)NC(=O)C[S+]([O-])C(c1ccccc1)c1ccccc1` (stereo not drawn) [Exemple 3], the “Activité sur le SNC” value in the data set with SNC is reported as “stimulant”.

Turning to `O=C(C[S+]([O-])C(c1ccccc1)c1ccccc1)N1CCOCC1` (stereo not drawn) [Exemple 6], in the data set with SNC, the “Activité sur le SNC” value is recorded as “sédatif”.

Take `CCNC(=O)C[S+]([O-])C(c1ccccc1)c1ccccc1` (stereo not drawn) [Exemple 4]: the “Activité sur le SNC” value with SNC is recorded as “sédatif”. The “Action sur la durée du sommeil induit par le pentobarbital (50 mg/kg i.p.) effet” value in the data set on souris mâle [1] (dose 64 mg/kg i.p., 0,5 h before pentobarbital) is listed as “(a)”; with souris mâle [1] (dose 128 mg/kg i.p., 0,5 h before pentobarbital), “(a)”; with souris mâle [1] (dose 256 mg/kg i.p., 0,5 h before pentobarbital) it was “(a)”. The DL-O entry with souris mâle [2] was “supérieure à 512 mg/kg”. In addition, the “ensemble d'effets de type sédatif” value with souris mâles (doses faibles et moyennes) is recorded as “sédation, hypo- réactivité, hypoagressivité, hypothermie”. Moreover, the “effet convulsivant de l'électrochoc” value in the data set on souris [8] (doses faibles et moyennes) was “antagonisme”. For the same molecule, in the data set on souris [9] (doses faibles et moyennes), the activité motrice result is reported as “absence de toute diminution d'activité motrice”. Moreover, the “motilité spontanée” value in the data set on souris [9] (doses élevées) was “hypermotilité discrète”. The “activité chez la souris habituée à son enceinte” value in the data set with souris [10] (doses élevées) was “reprise modérée de l'activité”. Further, in the data set with souris [13], the “récupération motrice après hypoxie” value is given as “amélioration sensible”. Further, the sommeil barbiturique result with souris [11] (dose not stated) was “effet antagoniste”. Also, in the data set on souris [12] (dose not stated), the “hypomotilité de "désespoir"” value is on record as “diminution”.

Source of the values: EP0097071A1, “Benzhydryl sulfinylacetamide derivatives and their therapeutical use” (LABORATOIRE L. LAFON Société anonyme dite:, priority 1982, dated 1983).
